How the values were obtained:
OSGPR114 = target: T1, OSGPR114 (Homo sapiens, UniProt Q9H1C0); experiment: FLIPR intracellular calcium assay, CHO-OSGPR114 cells; assay type: cell-based; conditions: FLIPR, read-out: EC50, intracellular calcium response
T1 construct: expressed in transfected cells; host or cells: engineered yeast (GPA1 replaced by G-alpha chimeras, STE3 deleted; Fus1p-LacZ reporters)
Method: (§1) For example, in one method employed herein, CHO and CHO-114 cells were seeded at a concentration of 50K cells/well in […] growth media in clear, flat-bottom 96-well black assay plates and incubated overnight at 37 C. The growth media is aspirated from the cells and a dye solution ([…]) added to each well. The dye solution consists of 2 mM probenecid, 2 mM HBSS, […] in a growth media minus antibiotics solution. The cells are loaded with the dye for 1 h at 37 C before aspiration and rinsing with wash buffer (20 mM HBSS+2 mM Probenecid). Compound plates are then prepared with 4× compound/control. 150 ul of wash buffer is added to each well. Once the FLIPR is fully calibrated, compound is added to the plate and the release of calcium measured using 0.4 exposure length and a laser set at 0.3W.

CHO cells = experiment: FLIPR intracellular calcium assay, CHO cells; assay type: cell-based, hamster
Method: as §1

HCT-8 cells [1] = experiment: LPA effect on cell proliferation (Cell TiterGlo); assay type: cell-based, human
Method: (§2) The effect of LPA on cell proliferation (Cell TiterGlo assay, Promega) and induction of apoptosis (Apo-One Caspase 3/7 assay, Promega) was measured in the presence and absence of serum. Cell-titer Glo is an assay that quantitates ATP as a measurement of the number of viable cells in a culture. The assay utilizes a luciferase-based luminescent signal. The Apo-One assay utilizes a profluorescent caspase 3/7 consensus substrate to measure the activation of caspase in the sample. The experiments were conducted in serum-free media as it is known that serum contains high concentrations of LPA (of the order of 10-30 uM). Briefly, cells were plated in 96-well plates at a density of 20,000 cells/well. After 24 h the serum-containing media was removed from the cells and replaced with either serum-containing or serum-free media. After 24 h LPA, at concentrations from 1-100 μM was added to the cells. 24 h later the induction of apoptosis and the level of cellular proliferation was measured using the Cell titer-glo or Caspase 3/7 Apo-One assay kits commercially available from Promega.

HCT-8 cells [2] = experiment: LPA effect on apoptosis (Apo-One Caspase 3/7); assay type: cell-based, human
Method: as §2

ERK in HCT-8 cells = experiment: ERK phosphorylation by LPA; assay type: cell-based, human; conditions: 10 μM LPA, 3 mins
Method: FIG. 23: Ability of LPA to phosphorylate ERK in cell lines known to express OSGPR114. 10 μM LPA and 1 μM EGF were used for this experiment, and the cells were stimulated with ligand for 3 mins prior to lysing.
One of the principal proliferative signaling pathways is the activation of ERK. […] However, the ability of LPA acting at OSGPR114 to effect ERK is unknown. HCT-8 cells, which express OSGPR114 at high levels, provide one of the best models available. […] This evidence supporting the hypothesis that LPA, likely acting at least in part at OSGPR114, induces ERK activation, a signaling pathway that is known to stimulate cellular proliferation.

EGFR in HCT-8 cells = experiment: EGFR transactivation, Western blot with phospho-tyrosine specific antibody; assay type: cell-based, human; conditions: 10 μM
Text: FIG. 24: Western blot showing the ability of LPA to transactivate EGFR in HCT-8 cells, as assessed using a phospho-tyrosine specific antibody.
The ability of LPA to phosphorylate ERK1/2 has been extensively described in the literature, and three principal mechanisms have been described for this effect. […] The first of these pathways involves β-arrestin recruitment and activation of Src, which then transactivates the RTK. The second of these pathways involves She which is recruited by LPA and can itself activate membrane-bound metalloproteases (e.g. ADAM10) which causes release of heparin-bound epidermal growth factor (EGF) which can then activate EGF receptor. EGF and activation of the EGF receptor is a well known proliferative pathway for many cell lines. The possibility of LPA causing transactivation of EGFR in HCT-8 cells was tested as the EGFR signaling pathway is known to be present and active in these cells. […] From the LPA-based literature, the potential for LPA to also transactivate other RTKs, such as PDGFR for example, in these cells is a very likely possibility.

Shc in HCT-8 cells = experiment: Shc activation, phospho-specific antibody; assay type: cell-based, human; conditions: 10 uM
Method: (§3) FIGS. 25A-C. LPA (10 uM) activation of Shc (A), paxillin (B) and SHP-2(C) in HCT-8 cell lysates. Phospho-specific antibodies were used to detect the activated proteins.
(§4) Many of the growth and survival signaling pathways of cancer cells have been identified. […] The protein She is an adaptor protein and the protein phosphatase SHP-2 are known to link the activation of multiple growth factor receptors to their downstream signaling pathways in cancer cells (For review see Yart et al. (2003) Current Cancer Drug Targets 3:177-192). These proteins are involved in mitogenic signaling by linking growth stimuli to the Ras-mitogen-activated protein kinase cascade and the PI3K survival pathway. […] Additionally, paxillin is a scaffold molecule intricately involved in the regulation of focal adhesions in cancer cells. It is therefore involved in the regulation of cell spreading and motility and is controlled by a multitude of signaling moieties including growth factors, and their downstream signaling molecules. Paxillin recruits these signaling components into specific cell compartments known as focal adhesions (For review, see Schaller (2001) Oncogene 20:6459-72). […] By treating HCT-8 cells with LPA (10 uM), the effect of LPA on the phosphorylation of paxillin was measured using activation state specific antibodies ([…]).

SHP-2 in HCT-8 cells = experiment: SHP-2 activation, phospho-specific antibody; assay type: cell-based, human; conditions: 10 uM
Method: as §3, §4

paxillin in HCT-8 cells = experiment: Paxillin phosphorylation, activation state specific antibodies; assay type: cell-based, human; conditions: 10 uM
Method: as §3, §4

[3] = tested on: Akt in CHO cell line stably transfected with OSGPR114; experiment: Akt phosphorylation, phospho-specific Akt antibody; assay type: cell-based; conditions: 10 uM, 3 minutes
Method: FIG. 26. Effect of LPA (10 μM), EGF (1 μM) and DMSO on levels of phospho-Akt as a in a CHO-K1 cell line stably transfected with OSGPR114.
The protein Akt is a well characterized survival pathway for many cancer cells and is a pathway that can be induced by multiple cell growth factors (For review, see Marte and Downward (1997) Trends Biochem. Sci. 22:355-358). […] The cells used for this experiment were a CHO cell line stably transfected with OSGPR114. The cells were treated with vehicle, LPA (10 uM) or EGF (1 uM) for 3 minutes.

[4] = serum free conditions, LPA 1-100 μM, 24 h

T1 sequence (Q9H1C0 whole entry): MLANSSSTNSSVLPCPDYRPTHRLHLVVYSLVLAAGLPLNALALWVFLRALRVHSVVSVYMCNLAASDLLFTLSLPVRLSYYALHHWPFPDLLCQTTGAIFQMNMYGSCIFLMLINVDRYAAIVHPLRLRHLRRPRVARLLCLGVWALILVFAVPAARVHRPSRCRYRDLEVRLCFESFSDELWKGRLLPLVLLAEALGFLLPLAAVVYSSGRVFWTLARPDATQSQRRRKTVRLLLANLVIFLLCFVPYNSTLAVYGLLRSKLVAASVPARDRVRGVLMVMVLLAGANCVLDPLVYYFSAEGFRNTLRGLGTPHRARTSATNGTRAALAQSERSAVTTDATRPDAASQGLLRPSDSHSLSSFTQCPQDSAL

EC50 (OSGPR114): 59 nM
Substance: lysophosphatidic acid [LPA]
change in intracellular calcium concentration (CHO cells): no significant change | cell growth / proliferation (HCT-8 cells [1]; presence of 10% FCS): no statistically significant effects | cell growth / proliferation (HCT-8 cells [1]; [4]): induced growth of the cells in a concentration dependent manner | apoptosis (HCT-8 cells [2]; presence of 10% FCS): no statistically significant effects | apoptosis induced through serum starving (HCT-8 cells [2]; [4]): reversed apoptosis | ERK activation (ERK in HCT-8 cells): stimulate ERK | EGFR transactivation (EGFR in HCT-8 cells): capable of transactivating EGFR | phosphorylation of Shc (Shc in HCT-8 cells): induced the phosphorylation | phosphorylation of SHP-2 (SHP-2 in HCT-8 cells): induced the phosphorylation | phosphorylated paxillin (paxillin in HCT-8 cells): highly significant increase in phosphorylated paxillin | phosphorylation of Akt [3]: stimulate phosphorylation of Akt

Source: patent publication US7879566B2, “Methods for the identification of modulators of OSGPR114 or OSGPR78 activity, and their use in the treatment of disease” (OSI Pharmaceuticals, Inc., priority 2003, dated 2011)
